Reference: patent publication US10654847B2, “Substituted 2-(4-heterocyclylbenzyl)isoindolin-1-one analogs as positive allosteric modulators of the muscarinic acetylcholine receptor M1” (Vanderbilt University, priority 2011, dated 2020)

target: T1, mAChR M1 (UniProt P11229); assay: mAChR M1 cell-based functional assay (calcium mobilization, potentiation of EC20 acetylcholine response); conditions: % ACh maximum at 30 μM; mAChR M1-expressing CHO-K1 cells, calcium flux
T1 sequence (P11229 1-460): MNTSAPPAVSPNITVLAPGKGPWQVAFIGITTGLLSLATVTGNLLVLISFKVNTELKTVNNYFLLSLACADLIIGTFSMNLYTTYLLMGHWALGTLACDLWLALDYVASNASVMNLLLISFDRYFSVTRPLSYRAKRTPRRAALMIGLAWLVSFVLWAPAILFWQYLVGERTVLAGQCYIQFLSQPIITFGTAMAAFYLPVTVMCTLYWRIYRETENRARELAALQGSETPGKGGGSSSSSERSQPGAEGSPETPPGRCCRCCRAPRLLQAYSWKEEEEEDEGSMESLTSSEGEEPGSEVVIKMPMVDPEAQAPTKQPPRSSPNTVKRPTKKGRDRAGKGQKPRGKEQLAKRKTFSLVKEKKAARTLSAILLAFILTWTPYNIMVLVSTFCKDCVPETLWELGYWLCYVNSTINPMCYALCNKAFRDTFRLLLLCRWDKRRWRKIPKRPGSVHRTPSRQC
Procedure: Chinese hamster ovary (CHO-K1) cells stably expressing rat (r)M1 were purchased from the American Type Culture Collection and cultured according to their indicated protocol. […] To make stable rM2, hM2, rM3, hM4, and rM4 cell lines for use in calcium mobilization assays, these cells also were stably transfected with a chimeric G-protein (Gqi5) (provided by B. R. Conklin, University of California, San Francisco) using Lipofectamine 2000. rM1, hM1, rM3, hM3, rM5, and hM5 cells were grown in Ham's F-12 medium containing 10% heat-inactivated fetal bovine serum (FBS), 20 mM HEPES, and 50 μg/mL G418 sulfate. rM2-Gqi5, hM2-Gqi5, and hM4-Gqi5 cells were grown in the same medium also containing 500 μg/mL Hygromycin B. Stable rM4-Gqi5 cells were grown in DMEM containing 10% heat-inactivated FBS, 20 mM HEPES, 400 μg/mL G418 sulfate, and 500 μg/mL Hygromycin B.
For high throughput measurement of agonist-evoked increases in intracellular calcium, CHO-K1 cells stably expressing muscarinic receptors were plated in growth medium lacking G418 and hygromycin at 15,000 cells/20 μL/well in Greiner 384-well black-walled, tissue culture (TC)-treated, clear-bottom plates (VWR). Cells were incubated overnight at 37° C. and 5% CO2. […] Compound master plates were formatted in an 11 point CRC format (1:3 dilutions) in 100% DMSO with a starting concentration of 10 mM using the BRAVO liquid handler (Agilent). Test compound CRCs were then transferred to daughter plates (240 nL) using the Echo acoustic plate reformatter (Labcyte, Sunnyvale, Calif.) and then diluted into assay buffer (40 μL) to a 2× stock using a Thermo Fisher Combi (Thermo Fisher Scientific, Waltham, Mass.).
Calcium flux was measured using the Functional Drug Screening System (FDSS) 6000 (Hamamatsu Corporation, Tokyo, Japan) as an increase in the fluorescent static ratio. Compounds were applied to cells (20 μL, 2×) using the automated system of the FDSS 6000 at 4 s into the 300 s protocol and the data were collected at 1 Hz. […] Agonist activity was analyzed as a concentration-dependent increase in calcium mobilization upon compound addition. Positive allosteric modulator activity was analyzed as a concentration-dependent increase in the EC20 acetylcholine response. Antagonist activity was analyzed as a concentration-dependent decrease in the EC80 acetylcholine response. Concentration-response curves were generated using a four-parameter logistical equation in XLfit curve fitting software (IDBS, Bridgewater, N.J.) for Excel (Microsoft, Redmond, Wash.) or Prism (GraphPad Software, Inc., San Diego, Calif.).
The above described assay was also operated in a second mode where an appropriate fixed concentration of the present compounds were added to the cells after establishment of a fluorescence baseline for about 3 seconds, and the response in cells was measured. […] Data were reduced as described above and the EC50 values for the agonist in the presence of test compound were determined by nonlinear curve fitting. A decrease in the EC50 value of the agonist with increasing concentrations of the present compounds (a leftward shift of the agonist concentration-response curve) is an indication of the degree of muscarinic positive allosteric modulation at a given concentration of the present compound. An increase in the EC50 value of the agonist with increasing concentrations of the present compounds (a rightward shift of the agonist concentration response curve) is an indication of the degree of muscarinic antagonism at a given concentration of the present compound. The second mode also indicates whether the present compounds also affect the maximum response of the muscarinic receptor to agonists.
The calcium mobilization assay was also used to determine “efficacy”.

Emax (%) | SMILES
82 | Cn1cc2cc(-c3ccc(CN4Cc5ncccc5C4=O)c(F)c3)ccc2n1 [Example B1]
78 | Cc1nn(C)cc1-c1ccc(CN2Cc3ccccc3C2=O)c(F)c1 [Example B2]
34 | Cn1cc2cc(-c3ccc(CN4Cc5ccccc5S4(=O)=O)c(F)c3)ccc2n1 [Example B5]
38 | O=C1c2ccccc2CN1Cc1ccc(-c2ccc3cnccc3c2)cc1F [Example B6]
63 | Cn1cc(-c2ccc(CN3Cc4cc(F)cc(F)c4C3=O)c(F)c2)cn1 [Example B7]
79 | Cn1cc(-c2ccc(CN3Cc4ccncc4C3=O)c(F)c2)cn1 [Example B8]
83 | Cn1cc(-c2ccc(CN3Cc4ncccc4C3=O)c(F)c2)cn1 [Example B9]
62 | Cn1ccc2ccc(-c3ccc(CN4Cc5ccccc5C4=O)c(F)c3)cc21 [Example B10]
71 | O=C1c2ccccc2CN1Cc1ccc(-c2ccncc2)cc1F [Example B11]
36 | Cn1cc(-c2ccc(CN3Cc4ccccc4C3=O)c(C(F)(F)F)c2)cn1 [Example B12]
35 | CC(c1ccc(-c2cnn(C)c2)cc1F)N1Cc2ccccc2C1=O (stereo not drawn) [Example B13, 2-(1-(2-fluoro-4-(1-methyl-1H-pyrazol-4-yl)phenyl)ethyl)isoindolin-1-one]
36 | O=C1c2cccnc2CN1Cc1ccc(-c2ccnc(F)c2)cc1F [Example B14]
37 | Cn1cc(-c2ccc(CN3Cc4ccccc4C3=O)nc2)cn1 [Example B15]
38 | O=C1c2ccccc2CN1Cc1ccc(-c2c[nH]nc2C(F)(F)F)cc1F [Example B16]
40 | Cn1cc(-c2ccc(CN3Cc4ccccc4C3=O)cn2)cn1 [Example B17]
40 | Cn1cc(-c2cnc(CN3Cc4ncccc4C3=O)c(F)c2)cn1 [Example B18]
40 | Cn1nccc1-c1ccc(CN2Cc3ccccc3C2=O)c(F)c1 [Example B19]
43 | Cn1cc(-c2cnc(CN3Cc4cccnc4C3=O)c(F)c2)cn1 [Example B20]
43 | Cn1cc(-c2cnc(CN3Cc4ccccc4C3=O)c(F)c2)cn1 [Example B21]
51 | O=C1c2ccccc2CN1Cc1ccc(-n2ccnc2)cc1F [Example B22]

same assay, conditions: positive allosteric modulation of EC20 ACh response, mAChR M1 CHO-K1 cells; <5 estimated where no plateau

pEC50 | SMILES
5.96 | Cn1cc2cc(-c3ccc(CN4Cc5ncccc5C4=O)c(F)c3)ccc2n1 [Example B1]
5.82 | Cc1nn(C)cc1-c1ccc(CN2Cc3ccccc3C2=O)c(F)c1 [Example B2]
5.60 | Cn1cc2cc(-c3ccc(CN4Cc5ccccc5S4(=O)=O)c(F)c3)ccc2n1 [Example B5]
5.59 | O=C1c2ccccc2CN1Cc1ccc(-c2ccc3cnccc3c2)cc1F [Example B6]
5.59 | Cn1cc(-c2ccc(CN3Cc4cc(F)cc(F)c4C3=O)c(F)c2)cn1 [Example B7]
5.55 | Cn1cc(-c2ccc(CN3Cc4ccncc4C3=O)c(F)c2)cn1 [Example B8]
5.55 | Cn1cc(-c2ccc(CN3Cc4ncccc4C3=O)c(F)c2)cn1 [Example B9]
5.51 | Cn1ccc2ccc(-c3ccc(CN4Cc5ccccc5C4=O)c(F)c3)cc21 [Example B10]
5.47 | O=C1c2ccccc2CN1Cc1ccc(-c2ccncc2)cc1F [Example B11]
5.42 | Cn1cc(-c2ccc(CN3Cc4ccccc4C3=O)c(C(F)(F)F)c2)cn1 [Example B12]
<5.00 | CC(c1ccc(-c2cnn(C)c2)cc1F)N1Cc2ccccc2C1=O (stereo not drawn) [Example B13, 2-(1-(2-fluoro-4-(1-methyl-1H-pyrazol-4-yl)phenyl)ethyl)isoindolin-1-one]
<5.00 | O=C1c2cccnc2CN1Cc1ccc(-c2ccnc(F)c2)cc1F [Example B14]
<5.00 | Cn1cc(-c2ccc(CN3Cc4ccccc4C3=O)nc2)cn1 [Example B15]
<5.00 | O=C1c2ccccc2CN1Cc1ccc(-c2c[nH]nc2C(F)(F)F)cc1F [Example B16]
<5.00 | Cn1cc(-c2ccc(CN3Cc4ccccc4C3=O)cn2)cn1 [Example B17]
<5.00 | Cn1cc(-c2cnc(CN3Cc4ncccc4C3=O)c(F)c2)cn1 [Example B18]
<5.00 | Cn1nccc1-c1ccc(CN2Cc3ccccc3C2=O)c(F)c1 [Example B19]
<5.00 | Cn1cc(-c2cnc(CN3Cc4cccnc4C3=O)c(F)c2)cn1 [Example B20]
<5.00 | Cn1cc(-c2cnc(CN3Cc4ccccc4C3=O)c(F)c2)cn1 [Example B21]
<5.00 | O=C1c2ccccc2CN1Cc1ccc(-n2ccnc2)cc1F [Example B22]

same assay, conditions: positive allosteric modulation of EC20 ACh response, mAChR M1 CHO-K1 cells; >10 μM estimated where no plateau; read-out: EC50

EC50 [µM] | SMILES
1.1 | Cn1cc2cc(-c3ccc(CN4Cc5ncccc5C4=O)c(F)c3)ccc2n1 [Example B1]
1.5 | Cc1nn(C)cc1-c1ccc(CN2Cc3ccccc3C2=O)c(F)c1 [Example B2]
2.5 | Cn1cc2cc(-c3ccc(CN4Cc5ccccc5S4(=O)=O)c(F)c3)ccc2n1 [Example B5]
2.6 | O=C1c2ccccc2CN1Cc1ccc(-c2ccc3cnccc3c2)cc1F [Example B6]
2.6 | Cn1cc(-c2ccc(CN3Cc4cc(F)cc(F)c4C3=O)c(F)c2)cn1 [Example B7]
2.8 | Cn1cc(-c2ccc(CN3Cc4ccncc4C3=O)c(F)c2)cn1 [Example B8]
2.8 | Cn1cc(-c2ccc(CN3Cc4ncccc4C3=O)c(F)c2)cn1 [Example B9]
3.1 | Cn1ccc2ccc(-c3ccc(CN4Cc5ccccc5C4=O)c(F)c3)cc21 [Example B10]
3.4 | O=C1c2ccccc2CN1Cc1ccc(-c2ccncc2)cc1F [Example B11]
3.8 | Cn1cc(-c2ccc(CN3Cc4ccccc4C3=O)c(C(F)(F)F)c2)cn1 [Example B12]
> 10 | CC(c1ccc(-c2cnn(C)c2)cc1F)N1Cc2ccccc2C1=O (stereo not drawn) [Example B13, 2-(1-(2-fluoro-4-(1-methyl-1H-pyrazol-4-yl)phenyl)ethyl)isoindolin-1-one]
> 10 | O=C1c2cccnc2CN1Cc1ccc(-c2ccnc(F)c2)cc1F [Example B14]
> 10 | Cn1cc(-c2ccc(CN3Cc4ccccc4C3=O)nc2)cn1 [Example B15]
> 10 | O=C1c2ccccc2CN1Cc1ccc(-c2c[nH]nc2C(F)(F)F)cc1F [Example B16]
> 10 | Cn1cc(-c2ccc(CN3Cc4ccccc4C3=O)cn2)cn1 [Example B17]
> 10 | Cn1cc(-c2cnc(CN3Cc4ncccc4C3=O)c(F)c2)cn1 [Example B18]
> 10 | Cn1nccc1-c1ccc(CN2Cc3ccccc3C2=O)c(F)c1 [Example B19]
> 10 | Cn1cc(-c2cnc(CN3Cc4cccnc4C3=O)c(F)c2)cn1 [Example B20]
> 10 | Cn1cc(-c2cnc(CN3Cc4ccccc4C3=O)c(F)c2)cn1 [Example B21]
> 10 | O=C1c2ccccc2CN1Cc1ccc(-n2ccnc2)cc1F [Example B22]
